Laboratory results taken from ChEMBL document CHEMBL1146444, “RKS-1778, a new mammalian cell-cycle inhibitor and a key intermediate of the [11]cytochalasin group” (J Nat Prod, 1997).
Active and inactive are the calls of the source. The calls are words filed in the database; no cut-off is given here.

Columns and labels:
[1] = Cell cycle arrest in mouse temperature-sensitive FT210 cells by accumulation at M phase at 2.0 uM by flow cytometry; assay type: functional, cell-based
[2] = Cell cycle arrest in mouse temperature-sensitive FT210 cells by accumulation at M phase at 2.1 uM by flow cytometry; assay type: functional, cell-based

SMILES | Activity [1] | Activity [2]
CC(=O)O[C@@H]1/C=C/[C@](C)(O)C[C@@H](C)C/C=C/[C@H]2C=C(C)[C@@H](C)[C@H]3[C@H](Cc4ccccc4)NC(=O)[C@]321 | Active | Active
CC(=O)O[C@@H]1/C=C/[C@](C)(O)C[C@@H](C)C/C=C/[C@H]2[C@@H]3O[C@]3(C)[C@@H](C)[C@H]3[C@H](Cc4ccccc4)NC(=O)[C@@]312 | Active | Active
